Assay results as given in PMC11219871, “Epigenetic-based differentiation therapy for Acute Myeloid Leukemia” (Nature Communications, 2024).
Where “and” joins values, the source holds several entries; their conditions need not be identical. Equal entries are not always repeated.

Tests used:
ML-2 = test: Proteome analysis (LC-MS/MS); format: cell-based, human; conditions: ML-2, 25% GI50, 12 h
Description: After cooling down, lysates were incubated at 25 °C with 10 units of DNAse (Benzonase, Merk) and sonicated for 15 min in a Bioruptor for DNA shearing. Protein concentration was determined using microBCA, using BSA as standard. […] LysC, Wako). […] Peptides (500 μg) were labeled with Thermo Scientific […] Isobaric reagents for 1 h at 25 C. […] The final mixture was desalted using a 500 mg Sep-Pak C18t cartridge (Waters) and dried prior to high pH reverse phase HPLC pre-fractionation. Labeled peptides were fractionated offline through a high pH reverse phase chromatography using an Ultimate 3000 HPLC system equipped with a sample collector. Briefly, peptides were dissolved in 1200 μL of Buffer A (10 mM NH4OH) and loaded onto a XBridge BEH130 C18 column (3.5 μm, 250 mm length and 3.5 mm ID, Waters). […] One-minute fractions (500 μL) from minute 15 to 65 were collected and neutralized with 10% formic acid. […] Pooled fractions were snap-frozen and lyophilized. LC-MS/MS was done by coupling an UltiMate 3000 RSLCnano LC system to an Orbitrap Exploris 480 mass spectrometer (Thermo Fisher Scientific). […] The mass spectrometer was operated in a data-dependent mode, with an automatic switch between MS and MS/MS scans using a top 15 method. (Intensity threshold ≥ 1e4, dynamic exclusion of 20 sec and excluding charges unassigned, +1 and ≥ +7). MS spectra were acquired from 350 to 1500 m/z with a resolution of 60,000 FMHW (200 m/z). Ion peptides were isolated using a 0.7 Th window and fragmented using higher-energy collisional dissociation (HCD) with a normalized collision energy NCE of 36. MS/MS spectra were acquired with a fixed first mass of 120 m/z and a resolution of 45,000 FMHW (200 m/z). […] For total protein analysis, raw files were processed with MaxQuant (v 2.4.9.0) using the standard settings against the same protein database. […] Briefly, proteins/sites with less than eighteen valid values were filtered out. Then, a global normalization of log2-transformed intensities across samples was performed using the LOESS function. Differential analysis was done using the empirical Bayes statistics Limma. […] The FDR was estimated to be below 2% by Benjamini-Hochberg.

HEL = test: Differentiation assay, CD11b / annexin-V flow cytometry; format: cell-based; conditions: HEL cell line; replicates 1-3 (Figure 2A)
Description: (§1) Next, the cells were washed twice with phosphate-buffered saline (PBS) and resuspended in 1X Binding Buffer at a concentration of 1 × 10^6 cells/mL. An 8-µL aliquot of APC-CD11b (BD Pharmingen, Franklin Lakes, NJ, USA) and 1 µL of FITC annexin-V (AV) (BD Pharmingen, Franklin Lakes, NJ, USA) antibodies were added and incubated for 15 min at room temperature in the dark. Finally, after the addition of 400 µL of 1X Binding Buffer to each tube, samples were collected on a BD FACSCanto flow cytometer (Becton Dickinson, San Jose, CA, USA) and analyzed using FlowJo software.

NB-4 = test: as above; format: cell-based; conditions: for CD11b (%): NB4 cell line, replicates 1-3 (Figure 2A)
Description: as §1

M-O7e = test: as above; format: cell-based; conditions: MO7e cell line; replicates 1-3 (Figure 2A);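 also: daily treatment at a GI50-based fraction of each compound's GI50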
Description: as §1

OCI-AML3 = test: as above; format: cell-based; conditions: OCI-AML-3 cell line; replicates 1-3 (Figure 2A)
Description: as §1

TF-1 = test: as above; format: cell-based; conditions: TF-1 cell line; replicates 1-3 (Figure 2A);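 also: daily treatment at a GI50-based fraction of each compound's GI50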
Description: as §1

MONO-MAC-6 = test: as above; format: cell-based; conditions: MONOMAC-6 cell line; replicates 1-3 (Figure 2A)
Description: as §1

UT-7 = test: as above; format: cell-based; conditions: UT7 cell line; replicates 1-3 (Figure 2A)
Description: as §1

KASUMI-1 = test: as above; format: cell-based; conditions: KASUMI-1 cell line; replicates 1-3 (Figure 2A);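 also: daily treatment at a GI50-based fraction of each compound's GI50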
Description: as §1

OCI-AML2 = test: as above; format: cell-based; conditions: OCI-AML-2 cell line; replicates 1-3 (Figure 2A)
Description: as §1

GF-D8 = test: as above; format: cell-based; conditions: GF-D8 cell line; replicates 1-3 (Figure 2A);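 also: daily treatment at a GI50-based fraction of each compound's GI50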
Description: as §1

THP-1 = test: as above; format: cell-based; conditions: THP-1 cell line; replicates 1-3 (Figure 2A)
Description: as §1

Row | SMILES | proteins significantly regulated, of 8342 quantified (ML-2) [%] | CD11b (%) (HEL) | CD11b (%) (NB-4) | CD11b (%) (M-O7e) | CD11b (%) (OCI-AML3) | CD11b (%) (TF-1) | CD11b (%) (MONO-MAC-6) | CD11b (%) (UT-7) | CD11b (%) (KASUMI-1) | CD11b (%) (OCI-AML2) | CD11b (%) (GF-D8) | CD11b (%) (THP-1) | differentiation (CD11b) (NB-4; NB-4, daily 25% GI50, 48 h)
1 | COc1cc2nc(-c3cc(C)oc3C)cc(NCC3CCN(c4ncc(C(=O)NO)cn4)CC3)c2cc1OC [CM-1758, 2-[4-[[[2-(2,5-dimethyl-3-furyl)-6,7-dimethoxy-4-quinolyl]amino]methyl] -1-piperidyl]pyrimidine-5-carbohydroxamic acid] | 8.8 | 14.82% and 10.2% and 20.4% | 41.82% and 48.2% and 36.4% | 17.02% and 15.8% and 12.9% | 51.4% and 49.5% and 45.2% | 72.3% (2×) and 76.2% | 61.3% and 69.1% and 60.1% | 21.8% and 25.6% and 23.1% | 24.2% and 19.4% and 12.5% | 39.01% and 39.3% and 37.1% | 27.3% and 20% and 28.6% | 90.5% and 96.2% and 93.2% | –
2 | O=C(CCCCCCC(=O)Nc1ccccc1)NO [Vorinostat, reference compound] | 2.7 | – | – | – | – | – | – | – | – | – | – | – | –
3 | CC1=C(/C=C/C(C)=C/C=C/C(C)=C/C(=O)O)C(C)(C)CCC1 [ATRA, all-trans retinoic acid, reference compound] | – | 1.5% and 0.9% and 3.54% | 89.2% and 76.4% and 74.85% | 0.25% and 2.3% and 4.5% | 19.3% and 12.4% and 11.8% | 36.7% and 30.4% and 33.4% | 10.8% and 15.4% and 11.3% | 5.9% and 6.4% and 10.05% | 1.2% and 9.5% and 4.6% | 15.2% and 20.2% and 14.1% | 5.2% and 12.5% and 12.9% | 48.6% and 40.2% and 38.7% | induced differentiation
4 | Cc1[nH]c2ccccc2c1CCNCc1ccc(/C=C/C(=O)NO)cc1 [Panobinostat, reference compound] | 5.8 | – | – | – | – | – | – | – | – | – | – | – | –
5 | COc1cc2nc(-c3ccc(C)o3)cc(NCC3CCN(c4ncc(C(=O)NO)cn4)CC3)c2cc1OC [CM-444, 2-[4-[[[6,7-dimethoxy-2-(5-methyl-2-furyl)-4-quinolyl]amino]methyl]-1-piperidyl]pyrimidine-5-carbohydroxamic acid] | 9.5 | 12.7% and 10.5% and 8.2% | 46.5% and 38.3% and 33.9% | 5.2% and 11.2% and 10.9% | 36.4% and 23.4% and 30.8% | 85.3% and 79.1% and 71.7% | 69.4% and 75.8% and 60.6% | 16.8% and 20.4% and 21.0% | 16.9% and 10.6% and 19.6% | 21.1% and 24.6% and 20.5% | 26.5% and 25.8% and 22.1% | 99.1% and 93.5% and 92.1% | –
